The record followed here is US12630547B2, “RAS protein degraders, pharmaceutical compositions thereof, and their therapeutic applications” (BioTheryX, Inc., priority 2019, dated 2026).

The subject of the assay is MOLM-13 cells. Description: Cell viability assay (CELLTITER-GLO), MOLM-13 cells. The settings on record: Homo sapiens, MOLM-13, 72 h, 3 days, read-out: Effect on MOLM-13 cell viability (% DMSO); for viability at 1 µM: Table 3, compound at 1 μM; for viability at 10 µM: Table 2, compound at 10 μM. It counts as cell-based. The protocol: MOLM-13 cells, MV-4-11 cells, H23, and H358 cells were independently cultured in RPMI 1640 media supplemented with 10% fetal bovine serum, streptomycin and penicillin. The cells were plated in white walled 96-well plates at 4,000 cells/well. The cells were incubated in DMSO (control) or a compound for 3 days at 37° C. under 5% CO2. A CELLTITER-GLO® reagent (100 μL) was then added to each well. After a 10 min incubation with shaking, luminescence was measured using an ENVISION® multimode plate reader.
In Tables 1 and 2, each compound was tested at 10 μM; and in Table 3, each compound was tested at 1 μM. In Tables 1 to 3, the cell viability values as % DMSO are reported as “A,” “B,” “C,” or “D;” where “A” represents a % viability value of less than 10%; “B” represents a % viability value of no less than 10% and less than 25%; “C” represents a % viability value of no less than 25% and less than 50%; and “D” represents a % viability value of no less than 50%. Compound A is […]
Background: In ATP-based viability assays light output follows the ATP content of the culture.

What is called viability is a per cent measure of how many cells are alive, often set against a control. Turning to `C=CC(=O)N1CCN(c2ncnc3c(F)c(-c4c(F)cccc4OCCOCCOCCC(=O)NCCOc4cccc5c4C(=O)N(C4CCC(=O)NC4=O)C5=O)c(Cl)cc23)CC1` (centres unmarked) [Compound 3, 3-(2-(2-(2-(4-(4-Acryloylpiperazin-1-yl)-6-chloro-8-fluoroquinazolin-7-yl)-3-fluorophenoxy)ethoxy)ethoxy)-N-(2-((2-(2,6-dioxopiperidin-3-yl)-1,3-dioxoisoindolin-4-yl)oxy)ethyl)propanamide], the viability at 1 µM was at least 50%. As to `CCC(=O)N1CC(N2Cc3ccc(-c4cc(O)cc5ccccc45)cc3N(CCNCc3ccc(OCc4scc5c4CN(C4CCC(=O)NC4=O)C5=O)cc3)C2=O)C1` (centres unmarked) [Compound 4, 3-(1-((4-(((2-(7-(3-Hydroxynaphthalen-1-yl)-2-oxo-3-(1-propionylazetidin-3-yl)-3,4-dihydroquinazolin-1(2H)-yl)ethyl)amino)methyl)phenoxy)methyl)-4-oxo-4H-thieno[3,4-c]pyrrol-5(6H)-yl)piperidine-2,6-dione], the viability at 1 µM was in the range of 10 to 25%. Consider `CCC(=O)N1CC(N2Cc3ccc(-c4cc(O)cc5ccccc45)cc3N(CCOCCNCc3ccc(OCc4scc5c4CN(C4CCC(=O)NC4=O)C5=O)cc3)C2=O)C1` (centres unmarked) [Compound 5, 3-(1-((4-(((2-(2-(7-(3-Hydroxynaphthalen-1-yl)-2-oxo-3-(1-propionylazetidin-3-yl)-3,4-dihydroquinazolin-1(2H)-yl)ethoxy)ethyl)amino)methyl)phenoxy)methyl)-4-oxo-4H-thieno[3,4-c]pyrrol-5(6H)-yl)piperidine-2,6-dione], for which the viability at 1 µM is at least 50%.

For the molecule `CCC(=O)N1CCN(c2ncnc3c(F)c(-c4c(F)cccc4OCCOCCOCCC(=O)NCCNc4cccc5c4C(=O)N(C4CCC(=O)NC4=O)C5=O)c(Cl)cc23)CC1` (centres unmarked) [Compound 6, 3-(2-(2-(2-(6-Chloro-8-fluoro-4-(4-propionylpiperazin-1-yl)quinazolin-7-yl)-3-fluorophenoxy)ethoxy)ethoxy)-N-(2-((2-(2,6-dioxopiperidin-3-yl)-1,3-dioxoisoindolin-4-yl)amino)ethyl)propanamide], the viability at 1 µM was at least 50%. Still for that read-out and setting: the same measure for `CCC(=O)N1CC(N2Cc3ccc(-c4cc(O)cc5ccccc45)cc3N(CCOCCOCCC(=O)NCCOc3cccc4c3C(=O)N(C3CCC(=O)NC3=O)C4=O)C2=O)C1` (centres unmarked) [Compound 7, N-(2-((2-(2,6-Dioxopiperidin-3-yl)-1,3-dioxoisoindolin-4-yl)oxy)ethyl)-3-(2-(2-(7-(3-hydroxynaphthalen-1-yl)-2-oxo-3-(1-propionylazetidin-3-yl)-3,4-dihydroquinazolin-1(2H)-yl)ethoxy)ethoxy)propanamide]: at least 50%; for `CCC(=O)N1CCN(c2ncnc3c(F)c(-c4c(F)cccc4OCCOCCOCCC(=O)NCCOc4cccc5c4C(=O)N(C4CCC(=O)NC4=O)C5=O)c(Cl)cc23)CC1` (centres unmarked) [Compound 8, 3-(2-(2-(2-(6-Chloro-8-fluoro-4-(4-propionylpiperazin-1-yl)quinazolin-7-yl)-3-fluorophenoxy)ethoxy)ethoxy)-N-(2-((2-(2,6-dioxopiperidin-3-yl)-1,3-dioxoisoindolin-4-yl)oxy)ethyl)propanamide]: at least 50%; for `CCC(=O)N1CCN(c2ncnc3c(F)c(-c4c(F)cccc4OCCOCCOCCOCCNc4cccc5c4C(=O)N(C4CCC(=O)NC4=O)C5=O)c(Cl)cc23)CC1` (centres unmarked) [Compound 9, 4-((2-(2-(2-(2-(2-(6-Chloro-8-fluoro-4-(4-propionylpiperazin-1-yl)quinazolin-7-yl)-3-fluorophenoxy)ethoxy)ethoxy)ethoxy)ethyl)amino)-2-(2,6-dioxopiperidin-3-yl)isoindoline-1,3-dione]: at least 50%. In the case of `C=CC(=O)N1CC(N2Cc3ccc(-c4cc(O)cc5ccccc45)cc3N(CCOCCC(=O)NCCOc3cccc4c3C(=O)N(C3CCC(=O)NC3=O)C4=O)C2=O)C1` (centres unmarked) [Compound 10, 3-(2-(3-(1-Acryloylazetidin-3-yl)-7-(3-hydroxynaphthalen-1-yl)-2-oxo-3,4-dihydroquinazolin-1(2H)-yl)ethoxy)-N-(2-((2-(2,6-dioxopiperidin-3-yl)-1,3-dioxoisoindolin-4-yl)oxy)ethyl)propanamide], the viability at 1 µM is at least 50%.

In the case of `C=CC(=O)N1CC(N2Cc3ccc(-c4cc(O)cc5ccccc45)cc3N(CCOCCOCCC(=O)NCCOc3cccc4c3C(=O)N(C3CCC(=O)NC3=O)C4=O)C2=O)C1` (centres unmarked) [Compound 11, 3-(2-(2-(3-(1-Acryloylazetidin-3-yl)-7-(3-hydroxynaphthalen-1-yl)-2-oxo-3,4-dihydroquinazolin-1(2H)-yl)ethoxy)ethoxy)-N-(2-((2-(2,6-dioxopiperidin-3-yl)-1,3-dioxoisoindolin-4-yl)oxy)ethyl)propanamide], the viability at 10 µM was at least 50%.

Turning to `CCC(=O)N1CC(N2Cc3ccc(-c4cc(O)cc5ccccc45)cc3N(CCOCCOCCOCCNc3cccc4c3C(=O)N(C3CCC(=O)NC3=O)C4=O)C2=O)C1` (centres unmarked) [Compound 12, 2-(2,6-Dioxopiperidin-3-yl)-4-((2-(2-(2-(2-(7-(3-hydroxynaphthalen-1-yl)-2-oxo-3-(1-propionylazetidin-3-yl)-3,4-dihydroquinazolin-1(2H)-yl)ethoxy)ethoxy)ethoxy)ethyl)amino)-isoindoline-1,3-dione], the viability at 10 µM was at least 50%.

With `C=CC(=O)N1CCN(c2ncnc3c(F)c(-c4c(O)cccc4F)c(Cl)cc23)C(CC(=O)NCCCCCNC(=O)NCc2cc3c(s2)C(=O)N(C2CCC(=O)NC2=O)C3)C1` (centres unmarked) [Compound 13, 2-(4-Acryloyl-1-(6-chloro-8-fluoro-7-(2-fluoro-6-hydroxyphenyl)quinazolin-4-yl)piperazin-2-yl)-N-(5-(3-((5-(2,6-dioxopiperidin-3-yl)-6-oxo-5,6-dihydro-4H-thieno[2,3-c]pyrrol-2-yl)methyl)ureido)pentyl)acetamide], the viability at 10 µM is at least 50%. As to `C=CC(=O)N1CC(c2nc3ccc(-c4cc(O)cc5ccccc45)cc3c(=O)n2CCOCCOCCNCc2ccc(OCc3scc4c3CN([C@H]3CCC(=O)NC3=O)C4=O)cc2)C1` [Compound 14, (S)-3-(1-((4-(((2-(2-(2-(2-(1-Acryloylazetidin-3-yl)-6-(3-hydroxynaphthalen-1-yl)-4-oxoquinazolin-3(4H)-yl)ethoxy)ethoxy)ethyl)amino)methyl)phenoxy)methyl)-4-oxo-4H-thieno[3,4-c]pyrrol-5(6H)-yl)piperidine-2,6-dione], the viability at 10 µM is at least 50%. With `C=CC(=O)N1CC(c2nc3ccc(-c4cc(O)cc5ccccc45)cc3c(=O)n2CCNCc2ccc(OCc3scc4c3CN([C@H]3CCC(=O)NC3=O)C4=O)cc2)C1` [Compound 15, (S)-3-(1-((4-(((2-(2-(1-Acryloylazetidin-3-yl)-6-(3-hydroxynaphthalen-1-yl)-4-oxoquinazolin-3(4H)-yl)ethyl)amino)methyl)phenoxy)methyl)-4-oxo-4H-thieno[3,4-c]pyrrol-5(6H)-yl)piperidine-2,6-dione], the viability at 10 µM is at least 50%. Same read-out and setting: the same measure for `C=CC(=O)N1CC(N2Cc3ccc(-c4cc(O)cc5ccccc45)cc3N(CCCCNCc3ccc(OCc4scc5c4CN([C@H]4CCC(=O)NC4=O)C5=O)cc3)C2=O)C1` [Compound 16, (S)-3-(1-((4-(((4-(3-(1-Acryloylazetidin-3-yl)-7-(3-hydroxynaphthalen-1-yl)-2-oxo-3,4-dihydroquinazolin-1(2H)-yl)butyl)amino)methyl)phenoxy)methyl)-4-oxo-4H-thieno[3,4-c]pyrrol-5(6H)-yl)piperidine-2,6-dione]: at least 50%.
